In US20230248702A1, “MICELLE COMPRISING BENZIMIDAZOLE-CARBOHYDRATE CONJUGATE COMPOUND, PREPARATION METHOD THEREOF AND USE THEREOF AS ANTICANCER AGENT OR ANTIVIRAL AGENT COMPRISING THE SAME” (BIOMETRIX TECHNOLOGY INC., priority 2021, published 2023):

What was measured:
[1] = system: normal lung cell lines MRC-5; experiment: Test for toxicity on normal cell lines (WST-8 cell viability assay); assay type: cell-based; details: rating relative to doxorubicin, 0-50 µM, incubated for 24 hours
Method: Normal lung cell lines MRC-5 were distributed by Korean Cell Line Bank (KCLB, Seoul in Korea) and grown using a complete culture medium. Fetal bovine serum (FBS), 0.1 mM MEM nonessential amino acid (NEAA), 2 mM L-glutamine, and 1 % of penicillin-streptomycin were treated with trypsin every two-three days in a humidified cell culture incubator containing 5 % of CO2 at 37° C. by using DMEM and a 10 % culture flask according to guidelines provided by the KCLB, to subculture cells. The culture was incubated until it reached 80-90 % confluence, and the cells continuously moved to the culture flask for a test of inhibition of growth of cancer cell lines.
The normal cell lines (MRC-5) were seeded in 96-well plates at about 7,000 cells per well. […]
After the incubation, the culture medium was thrown away, and cell viability in each well was measured according to an instruction of the manufacturer, using a WST-8 cell viability assay kit (Quanti-MaxTM, BIOMAX).
The analysis used the principle that the dehydrogenase of living cells decomposes tetrazolium salt to generate formazan, and based on this, the living cells were quantitatively evaluated. Reduced formazan dye (formazan salt) is soluble in the cell culture medium, and the amount of formazan (formazan) was measured using the direct proportionality to the number of viable cells.

[2] = system: cancer cell lines (pancreatic cancer cell line ASPC-1, lung cancer cell line A549, breast cancer cell line MCF-7, colorectal cancer cell line HCT 116); experiment: Test for inhibition of growth of cancer cell lines (WST-8 cell viability assay); assay type: cell-based, humans
Method: Pancreatic cancer cell lines ASPC-1, lung cancer cell lines A549, breast cancer cell lines MCF-7, and colorectal cancer cell lines HCT 116 of humans were distributed by Korean Cell Line Bank (KCLB, Seoul in Korea) and grown using culture media. Fetal bovine serum (FBS), 0.1 mM MEM nonessential amino acid (NEAA), 2 mM L-glutamine, and 1 % of penicillin-streptomycin were treated with trypsin every two-three days in a humidified cell culture incubator containing 5 % of CO2 at 37° C. by using DMEM and a 10 % culture flask according to guidelines provided by the KCLB, to subculture cells. […] After 24 hours, each of the nine sorts of compounds in table 2 was added to the well under six concentration conditions and was incubated for 24 hours. After the incubation, the culture medium was thrown away, and cell viability in each well was measured according to an instruction of the manufacturer, using a WST-8 cell viability assay kit (Quanti-MaxTM, BIOMAX). The analysis used the principle that the dehydrogenase of living cells decomposes tetrazolium salt to generate formazan, and based on this, the living cells were quantitatively evaluated. Reduced formazan dye (formazan salt) is soluble in the cell culture medium, and the amount of formazan (formazan) was measured using the direct proportionality to the number of viable cells.

Row | SMILES | Test for toxicity on normal cell line [1] | Test for inhibition of growth of cancer cell line ([2]; rating relative to doxorubicin, 0-50 µM, incubated for 24 hours) | total number of cancer cells remained within 24 hours ([2]; concentrations of Table 2 (0-50 µM), 24 hours) [%]
1 | CCCSc1ccc2nc(NC3O[C@H](CO)[C@@H](O)[C@H](O)[C@H]3O)[nH]c2c1 (stereo partly drawn) [Albendazole-glucose conjugate (Al-G), 6-(propylthio)-1H-benzoimidazol-2-aminoglucose] | AAA (an AAA rating denotes no toxicity (1/30 times or less)) | C (a C rating denotes a very weak quality (10 times or more)) | –
2 | COc1cccc2c1C(=O)c1c(O)c3c(c(O)c1C2=O)C[C@@](O)(C(=O)CO)C[C@@H]3O[C@H]1C[C@H](N)[C@H](O)[C@H](C)O1 [doxorubicin, reference compound] | – | – | ≥ 70
